Data set [1] concerns Salmonella typhimurium. The data set is described as follows: Bactericidal activity against Salmonella typhimurium ATCC 14028 at 0.03125 to 4 times MIC after 24 hrs by dose-kill assay. The class given is functional, organism-based. To be noted: Salmonella enterica subsp. enterica serovar Typhimurium.
For data set [2], the system named is Salmonella typhimurium. The data set is described as follows: Bactericidal activity against Salmonella typhimurium ATCC 14028 infected in mouse RAW264.7 cells assessed as log reduction in intracellular bacterial load at 10 uM after 10 hrs in presence of gentamycin. The class given is functional, Salmonella enterica subsp. enterica serovar Typhimurium.
Data set [3] has as its system Salmonella typhimurium. Put plainly: Bactericidal activity against Salmonella typhimurium ATCC 14028 at 10 uM within 3 to 9 hrs. The class given is functional, Salmonella enterica subsp. enterica serovar Typhimurium.
Data set [4] deals with Salmonella typhimurium. Put plainly: Antibacterial activity against Salmonella typhimurium ATCC 14028 assessed as survival at 10 uM after 3 hrs by broth microdilution method. Type of data set: functional, Salmonella enterica subsp. enterica serovar Typhimurium. For orientation: Broth dilution looks for growth in wells or tubes with falling amounts of substance.
In data set [5] the test system is Salmonella typhimurium. Put plainly: Antibacterial activity against Salmonella typhimurium ATCC 14028 at pH 7 after 16 to 18 hrs by broth microdilution method. The class given is functional, Salmonella enterica subsp. enterica serovar Typhimurium. The conditions noted are these: Salmonella enterica.
The test system of data set [6] is Salmonella typhimurium. The data set is described as follows: Bactericidal activity against Salmonella typhimurium ATCC 14028 infected in mouse RAW264.7 cells assessed as log reduction in intracellular bacterial load at 5 uM after 10 hrs in presence of gentamycin. The class given is functional, Salmonella enterica subsp. enterica serovar Typhimurium.
A short description of data set [7]: Drug uptake in mouse RAW264.7 cells at 5 uM using FITC-labeled test compound after 0.5 hrs by flow cytometry. Type of data set: ADME, cell-based. To be noted: raw264.7, 0.5 h. For orientation: In flow cytometry, cells or beads pass a laser one at a time.
Data set [8] in a line: Drug internalization in mouse RAW264.7 cells using FITC-labeled test compound by flow cytometry. The class given is ADME, cell-based.
Data set [9] can be described thus: Cytotoxicity against mouse RAW264.7 cells assessed as cell survival at 100 uM after 8 hrs by MTT assay. Type of data set: cell-based. The conditions noted are these: read-out: Survival. On the technique in general: Formazan colour is commonly taken as a measure of viable cells.
Data set [10] is described as follows: Drug uptake in mouse RAW264.7 cells at 5 uM using FITC-labeled test compound after 2 hrs by flow cytometry. The class given is ADME, cell-based. The conditions noted are these: raw264.7, 2 h.
Data set [11] in a line: Drug internalization in mouse RAW264.7 cells at 1 uM using FITC-labeled test compound after 0.5 hrs by flow cytometry. Type of data set: ADME, cell-based. To be noted: raw264.7, 0.5 h.
Data set [12] is described as follows: Drug uptake in mouse RAW264.7 cells at 5 uM using FITC-labeled test compound after 5 hrs by Hoechst 33342/FM 4-64 staining-based confocal microscopic analysis. The class given is ADME, cell-based. To be noted: raw264.7, 5 h.
Data set [13] is described as follows: Drug internalization in mouse RAW264.7 cells at 1 uM using FITC-labeled test compound after 2 hrs by flow cytometry. The class given is ADME, cell-based. To be noted: raw264.7, 2 h.
For data set [14], the system named is Salmonella typhimurium. The data set is described as follows: Antibacterial activity against Salmonella typhimurium ATCC 14028 at pH 5 after 16 to 18 hrs by broth microdilution method. The class given is functional, Salmonella enterica subsp. enterica serovar Typhimurium. The conditions noted are these: Salmonella enterica.
Data set [15] relates to Salmonella typhimurium. Put plainly: Bactericidal activity against Salmonella typhimurium ATCC 14028 infected in mouse RAW264.7 cells assessed as log reduction in intracellular bacterial load at 50 uM within 3 to 9 hrs in presence of gentamycin. Type of data set: functional, Salmonella enterica subsp. enterica serovar Typhimurium.
The subject of data set [16] is Salmonella typhimurium. Put plainly: Bactericidal activity against Salmonella typhimurium ATCC 14028 infected in mouse RAW264.7 cells assessed as log reduction in intracellular bacterial load at 100 uM within 3 to 9 hrs in presence of gentamycin. Type of data set: functional, Salmonella enterica subsp. enterica serovar Typhimurium.
The subject of data set [17] is Salmonella typhimurium. Put plainly: Bactericidal activity against Salmonella typhimurium ATCC 14028 infected in mouse RAW264.7 cells assessed as log reduction in intracellular bacterial load at 20 uM within 3 to 9 hrs in presence of gentamycin. Type of data set: functional, Salmonella enterica subsp. enterica serovar Typhimurium.

Values after ≈ are worked out from the molar mass of the structure shown. Active and inactive are the calls of the source. The rule behind the calls is not given here.

With `O=C(O)c1cn(C2CC2)c2cc(N3CCNCC3)c(F)cc2c1=O` [CIPROFLOXACIN], in the data set on Salmonella typhimurium [1], the outcome was Active. In addition, the “log(activity)” value in the data set on Salmonella typhimurium [2] came to 3.26; with Salmonella typhimurium [6], 2.67. Further, the Activity with Salmonella typhimurium [3] is 98.11 - 99.99%. In addition, in the data set on Salmonella typhimurium [4], the Survival was 5.5 ×10³ CFU/ml. Also, in the data set with Salmonella typhimurium [5], the minimum inhibitory concentration (MIC) (in general, the lowest concentration that inhibits growth of the organism) is 0.05 µM (≈ 0.0166 µg/mL).
Take `CC(C)[C@@H]1NC(=O)[C@H](C)NC(=O)[C@H](CC(N)=O)NC(=O)[C@H](CCCNC(=N)N)NC(=O)[C@H](Cc2ccc(O)cc2)NC(=O)[C@H](C(C)C)NC(=O)[C@@H]2CSSC[C@H](NC(=O)[C@H](C(C)C)NC(=O)[C@H](CCCNC(=N)N)NC1=O)C(=O)N[C@@H](Cc1c[nH]cn1)C(=O)N[C@@H](CCCNC(=N)N)C(=O)N[C@@H](CCCNC(=N)N)C(=O)N[C@H](C(=O)N[C@@H](CC(N)=O)C(=O)O)CSSC[C@H](NC(=O)[C@H](Cc1ccccc1)NC(=O)[C@H](C)N)C(=O)N[C@@H](Cc1c[nH]c3ccccc13)C(=O)N[C@@H](CC(N)=O)C(=O)N[C@@H](C(C)C)C(=O)N2`: the Drug uptake in data set [7] is 50%; in data set [8], “Dose-dependent effect and Tde”; in [10], 93.4%; in [11], 17.3%; in data set [12], “Not Active”; in data set [13], 31.4%. Also, the viability at 8 h, 100 µM in data set [9] amounted to 103%.
Regarding `CC(C)[C@@H]1NC(=O)[C@H](C)NC(=O)[C@H](CC(N)=O)NC(=O)[C@H](CCCNC(=N)N)NC(=O)[C@H](Cc2ccc(O)cc2)NC(=O)[C@H](C(C)C)NC(=O)[C@@H]2CSSC[C@H](NC(=O)[C@H](C(C)C)NC(=O)[C@H](CCCNC(=N)N)NC1=O)C(=O)N[C@@H](Cc1cnc[nH]1)C(=O)N[C@@H](CCCNC(=N)N)C(=O)N[C@@H](CCCNC(=N)N)C(=O)N[C@H](C(=O)N[C@@H](CC(N)=O)C(=O)O)CSSC[C@H](NC(=O)[C@H](Cc1ccccc1)NC(=O)[C@H](C)NC(=O)[C@H](CCCNC(=N)N)NC(=O)[C@H](Cc1c[nH]c3ccccc13)NC(=O)[C@H](CCC(N)=O)NC(=O)[C@H](Cc1c[nH]c3ccccc13)NC(=O)[C@H](CCCNC(=N)N)NC(=O)[C@@H](N)CCCNC(=N)N)C(=O)N[C@@H](Cc1c[nH]c3ccccc13)C(=O)N[C@@H](CC(N)=O)C(=O)N[C@@H](C(C)C)C(=O)N2`, the MIC in the data set with Salmonella typhimurium [14] came to 9 µM (≈ 31.8 µg/mL); in the data set with Salmonella typhimurium [5] it was 2.25 µM (≈ 7.95 µg/mL). In addition, the “log(activity)” value in the data set on Salmonella typhimurium [15] is listed as 1.63; in the data set on Salmonella typhimurium [16], 2.1. In addition, in the data set with Salmonella typhimurium [3], the Activity was 34.22 - 91.35%. The Survival in the data set with Salmonella typhimurium [4] stood at 1.9 ×10⁵ CFU/ml.
On to `CC(C)[C@@H]1NC(=O)[C@H](C)NC(=O)[C@H](CC(N)=O)NC(=O)[C@H](CCCNC(=N)N)NC(=O)[C@H](Cc2ccc(O)cc2)NC(=O)[C@H](C(C)C)NC(=O)[C@@H]2CSSC[C@H](NC(=O)[C@H](C(C)C)NC(=O)[C@H](CCCNC(=N)N)NC1=O)C(=O)N[C@@H](Cc1cnc[nH]1)C(=O)N[C@@H](CCCNC(=N)N)C(=O)N[C@@H](CCCNC(=N)N)C(=O)N[C@H](C(=O)N[C@@H](CC(N)=O)C(=O)O)CSSC[C@H](NC(=O)[C@H](Cc1ccccc1)NC(=O)[C@H](C)NC(=O)[C@H](CCCNC(=N)N)NC(=O)[C@H](CCCNC(=N)N)NC(=O)[C@H](CCCNC(=N)N)NC(=O)[C@H](CCC(N)=O)NC(=O)[C@H](CCCNC(=N)N)NC(=O)[C@H](CCCNC(=N)N)NC(=O)[C@H](CCCCN)NC(=O)[C@H](CCCCN)NC(=O)[C@H](CCCNC(=N)N)NC(=O)CNC(=O)[C@@H](N)Cc1ccc(O)cc1)C(=O)N[C@@H](Cc1c[nH]c3ccccc13)C(=O)N[C@@H](CC(N)=O)C(=O)N[C@@H](C(C)C)C(=O)N2`, for which the results for the minimum inhibitory concentration (MIC) against Salmonella typhimurium [14] and in the data set with Salmonella typhimurium [5] were 3.89 µM (≈ 16 µg/mL) and 1.94 µM (≈ 7.97 µg/mL), respectively. The “log(activity)” value in the data set with Salmonella typhimurium [15] is reported as 3.26; in the data set with Salmonella typhimurium [17], 1.57; with Salmonella typhimurium [2], 1.19. Besides, the Activity in the data set with Salmonella typhimurium [3] is listed as 48.28 - 98.85%. The Survival with Salmonella typhimurium [4] is reported as 1.5 ×10⁵ CFU/ml.

The record behind these values is ChEMBL document CHEMBL4251646, “Improved antibacterial activity of a marine peptide-N2 against intracellular Salmonella typhimurium by conjugating with cell-penetrating peptides-bLFcin6/Tat11” (Eur J Med Chem, 2018).
